Reference: patent US20230404933A1, “NON-CATIONIC SOFT POLYPHENOL NANOCAPSULES FOR EFFECTIVE […] […] OF SMALL INTERFERING RNA (siRNA) FOR CANCER TREATMENT” (Purdue Research Foundation, priority 2020, published 2023)

Test: siRNA stability in 50% FBS (gel electrophoresis)
Type: in vitro ADME, bovine
Experimental: siRNA-loading capacity of MSN^a was evaluated by the agarose gel retardation assay. siRNA-loaded MSNs (MSN^a/siRNA) complexes were prepared varying the MSN^a/siRNA weight ratio from 1/1 to 50/1. The complexes were loaded in 2% agarose gel and run in 0.5×TAE buffer at 80 V for 40 min. The gel was stained with ethidium bromide, and siRNA bands were detected at 302 nm using Azure C300 (Dublin, CA, USA). For stability testing, siRNA or NPs were challenged with 166 U/mL RNase for 15 min±8 mg/mL SDS for additional 2.5 h or 50% FBS for 1 h, both at 37° C., and analyzed by agarose gel electrophoresis. To quantify siRNA loaded in Nanosac (O/siRNA/pD), the NPs were dispersed in dilute HCl solution (pH 3) and incubated for 72 h. The samples were centrifuged at 16,000 rcf for 10 min, and the supernatant and pellet were separately analyzed by agarose gel electrophoresis.

With “siPD-L1: PD-L1 siRNA, sense 5′-CCCACAUAAAAAACAGUUGTT-3′ (SEQ ID NO: 1), antisense SEQ ID NO: 2 (antisense CAACUGUUUUUUAUGUGGGTT; chemistry not given here)” the “stability of siRNA in 50% FBS” value was “completely degraded”.
